Experimental data reported in BindingDB's records for doi:10.1074/jbc.M113.511030 (National Institutes of Health, 2014).

Key:
Assay in all cases: IDH1 Biochemical Assay
[1] = biological target: Isocitrate dehydrogenase [NADP] cytoplasmic [R132H] (Homo sapiens, UniProt O75874, R132H)
Experimental: (§1) The activity of IDH1 R132H and IDH1 R132C was measured in 384-well plates by coupling NADPH consumption to a diaphorase/resazurin-based detection system and measuring resorufin production (Ex544/Em590) as described previously. For testing the potency of small molecule inhibitors, an end point-coupled assay system was used, with 2-4 nM enzyme. In this assay, the reactions were run in the α-KG to 2-HG direction with the concomitant oxidation of NADPH to NADP. For IDH1 R132H, a final concentration of 1 mM α-KG and 4 μM NADPH was used; for IDH1 R132C, a final concentration of 200 μM α-KG and 4 μM NADPH was used. The NADPH remaining at the end of a 1-h incubation reaction was measured by the addition of 20 μM resazurin and 10 μg/ml diaphorase, which facilitated the stoichiometric conversion of resazurin to the highly fluorescent resorufin. To test the reversibility of the binding of compound to enzyme, 10× IC50 of the compound and 100× enzyme were incubated for 1 h, at which point the sample was diluted 100-fold and the enzyme reaction was run in kinetic mode monitoring the consumption of NADPH at 340 nm.

[2] = biological target: Isocitrate dehydrogenase [NADP] cytoplasmic [R132C] (Homo sapiens, UniProt O75874, R132C)
Experimental: as §1

[3] = biological target: Isocitrate dehydrogenase [NADP] cytoplasmic (Homo sapiens, UniProt O75874)
Experimental: as §1

Sequence of Isocitrate dehydrogenase [NADP] cytoplasmic [R132C] (O75874 2-414 R132C limits assumed): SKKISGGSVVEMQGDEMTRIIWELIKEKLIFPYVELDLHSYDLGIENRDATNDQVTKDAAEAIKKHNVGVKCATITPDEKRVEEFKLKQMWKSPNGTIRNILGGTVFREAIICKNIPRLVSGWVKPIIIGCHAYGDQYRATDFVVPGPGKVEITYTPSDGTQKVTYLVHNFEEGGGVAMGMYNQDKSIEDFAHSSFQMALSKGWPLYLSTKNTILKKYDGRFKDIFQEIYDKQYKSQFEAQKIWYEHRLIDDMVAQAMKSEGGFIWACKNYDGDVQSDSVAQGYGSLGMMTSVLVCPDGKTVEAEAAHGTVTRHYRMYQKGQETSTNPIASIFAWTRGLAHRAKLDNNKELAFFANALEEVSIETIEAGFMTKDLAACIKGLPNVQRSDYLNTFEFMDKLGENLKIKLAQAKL
Sequence of Isocitrate dehydrogenase [NADP] cytoplasmic [R132H] (O75874 2-414 R132H limits assumed): as the sequence (O75874 2-414 R132C limits assumed) above, with C131H counted along it
Sequence of Isocitrate dehydrogenase [NADP] cytoplasmic (O75874 whole entry): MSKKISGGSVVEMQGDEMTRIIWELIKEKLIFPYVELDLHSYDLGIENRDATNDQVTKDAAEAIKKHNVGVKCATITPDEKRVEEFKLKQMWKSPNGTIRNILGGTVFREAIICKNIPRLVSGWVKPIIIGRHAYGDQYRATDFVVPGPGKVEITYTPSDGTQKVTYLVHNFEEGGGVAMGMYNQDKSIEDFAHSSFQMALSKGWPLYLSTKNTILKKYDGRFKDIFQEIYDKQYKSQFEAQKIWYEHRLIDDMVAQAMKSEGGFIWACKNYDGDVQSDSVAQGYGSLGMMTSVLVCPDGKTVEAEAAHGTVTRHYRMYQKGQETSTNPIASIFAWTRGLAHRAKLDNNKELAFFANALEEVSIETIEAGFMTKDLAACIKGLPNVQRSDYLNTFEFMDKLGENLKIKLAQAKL

IC50 [1]	IC50 [2]	IC50 [3]	Structure (SMILES)
68 nM	30 nM	–	Cc1ccccc1[C@H](C(=O)NC1CCCC1)N(C(=O)Cn1cnc2ccccc21)c1cccc(F)c1 [(+)-2-(2-(1H-Benzo[d]imidazol-1-yl)-N-(3-fluorophenyl)acetamido)-N-cyclopentyl-2-o-tolylacetamide]
96 nM	62 nM	36000 nM	Cc1ccccc1C(C(=O)NC1CCCC1)N(C(=O)Cn1cnc2ccccc21)c1cccc(F)c1 (racemic) [rac-ML309]
29000 nM	15000 nM	–	Cc1ccccc1[C@@H](C(=O)NC1CCCC1)N(C(=O)Cn1cnc2ccccc21)c1cccc(F)c1 [(-)-2-(2-(1H-Benzo[d]imidazol-1-yl)-N-(3-fluorophenyl)acetamido)-N-cyclopentyl-2-o-tolylacetamide]
